# From ChEMBL document CHEMBL1697692, “Developing structure-activity relationships for the prediction of hepatotoxicity” (Chem Res Toxicol, 2010)
# System: Hepatotoxicity
# Experiment: Literature-mined public compounds from Greene et al multi-species hepatotoxicity modelling dataset
row,Structure (SMILES),Hepatotoxicity
1,CCN(CC)C(=O)N1CCN(C)CC1 [DIETHYLCARBAMAZINE],HH: Evidence of human hepatotoxicity
2,O=C(O)c1cc(-c2ccc(F)cc2F)ccc1O [DIFLUNISAL],HH: Evidence of human hepatotoxicity
3,C[C@H]1O[C@@H](O[C@H]2[C@@H](O)C[C@H](O[C@H]3[C@@H](O)C[C@H](O[C@H]4CC[C@@]5(C)[C@H](CC[C@@H]6[C@@H]5C[C@@H](O)[C@]5(C)[C@@H](C7=CC(=O)OC7)CC[C@]65O)C4)O[C@@H]3C)O[C@@H]2C)C[C@H](O)[C@@H]1O [DIGOXIN],NE: No evidence of hepatotoxicity in any species
4,C[C@H](CCc1ccccc1)NC[C@H](O)c1ccc(O)c(C(N)=O)c1 [DILEVALOL],HH: Evidence of human hepatotoxicity
5,OCC(S)CS (configuration not stated) [DIMERCAPROL],HH: Evidence of human hepatotoxicity
6,O=C1CCC(=O)N1c1cc(Cl)cc(Cl)c1 [DIMETHACHLON],AH: Evidence for animal hepatotoxicity but not tested in humans
7,CN(C)C=O [DIMETHYLFORMAMIDE],AH: Evidence for animal hepatotoxicity but not tested in humans
8,CCOC(=O)C1(c2ccccc2)CCN(CCC(C#N)(c2ccccc2)c2ccccc2)CC1.Cl [DIPHENOXYLATE HYDROCHLORIDE],NE: No evidence of hepatotoxicity in any species
9,CC(C)N(CCC(C(N)=O)(c1ccccc1)c1ccccn1)C(C)C.O=P(O)(O)O (configuration not stated) [DISOPYRAMIDE PHOSPHATE],HH: Evidence of human hepatotoxicity
10,CC(CCc1ccc(O)cc1)NCCc1ccc(O)c(O)c1.Cl (configuration not stated) [DOBUTAMINE HYDROCHLORIDE],NE: No evidence of hepatotoxicity in any species
11,COc1cc2c(cc1OC)C(=O)C(CC1CCN(Cc3ccccc3)CC1)C2 (configuration not stated) [DONEPEZIL],WE: Weak evidence (<10 case reports) of human hepatotoxicity
12,NCCc1ccc(O)c(O)c1 [DOPAMINE],NE: No evidence of hepatotoxicity in any species
13,COc1cccc2c1C(=O)c1c(O)c3c(c(O)c1C2=O)C[C@@](O)(C(=O)CO)C[C@@H]3O[C@H]1C[C@H](N)[C@H](O)[C@H](C)O1.Cl [DOXORUBICIN HYDROCHLORIDE],HH: Evidence of human hepatotoxicity
14,COc1cccc2c1C(=O)c1c(O)c3c(c(O)c1C2=O)C[C@@](O)(C(=O)CO)C[C@@H]3O[C@H]1C[C@H](N)[C@H](O)[C@H](C)O1 [DOXORUBICIN],NE: No evidence of hepatotoxicity in any species
15,Clc1ccc(COC(Cn2ccnc2)c2ccc(Cl)cc2Cl)cc1.O=[N+]([O-])O (configuration not stated) [ECONAZOLE NITRATE],NE: No evidence of hepatotoxicity in any species
16,CC[N+](C)(C)c1cccc(O)c1.[Cl-] [EDROPHONIUM CHLORIDE],NE: No evidence of hepatotoxicity in any species
17,CCN(CC)CCOc1ccc(/C(=C(/Cl)c2ccccc2)c2ccccc2)cc1.O=C(O)CC(O)(CC(=O)O)C(=O)O [ENCLOMIPHENE CITRATE],HH: Evidence of human hepatotoxicity
18,CCN(CC)C(=O)/C(C#N)=C/c1cc(O)c(O)c([N+](=O)[O-])c1 [ENTACAPONE],WE: Weak evidence (<10 case reports) of human hepatotoxicity
19,COc1cccc2c1C(=O)c1c(O)c3c(c(O)c1C2=O)C[C@@](O)(C(=O)CO)C[C@@H]3O[C@H]1C[C@H](N)[C@@H](O)[C@H](C)O1 [EPIRUBICIN],NE: No evidence of hepatotoxicity in any species

row,Structure (SMILES),Hepatotoxicity
1,CCCCc1ncc(/C=C(\Cc2cccs2)C(=O)O)n1Cc1ccc(C(=O)O)cc1 [EPROSARTAN],WE: Weak evidence (<10 case reports) of human hepatotoxicity
2,C=C1CC[C@H](O)C/C1=C/C=C1\CCC[C@]2(C)[C@@H]([C@H](C)/C=C/[C@H](C)C(C)C)CC[C@@H]12 [ERGOCALCIFEROL],NE: No evidence of hepatotoxicity in any species
3,C[C@@H](CO)NC(=O)[C@@H]1C=C2c3cccc4[nH]cc(c34)C[C@H]2N(C)C1.O=C(O)/C=C\C(=O)O [ERGONOVINE MALEATE],NE: No evidence of hepatotoxicity in any species
4,CN1C[C@H](C(=O)N[C@]2(C)O[C@@]3(O)[C@@H]4CCCN4C(=O)[C@H](Cc4ccccc4)N3C2=O)C=C2c3cccc4[nH]cc(c34)C[C@H]21.CN1C[C@H](C(=O)N[C@]2(C)O[C@@]3(O)[C@@H]4CCCN4C(=O)[C@H](Cc4ccccc4)N3C2=O)C=C2c3cccc4[nH]cc(c34)C[C@H]21.O=C(O)C(O)C(O)C(=O)O [ERGOTAMINE TARTRATE],NE: No evidence of hepatotoxicity in any species
5,CCC(=O)O[C@H]1[C@H](O[C@@H]2[C@@H](C)[C@H](O[C@H]3C[C@@](C)(OC)[C@@H](O)[C@H](C)O3)[C@@H](C)C(=O)O[C@H](CC)[C@@](C)(O)[C@H](O)[C@@H](C)C(=O)[C@H](C)C[C@@]2(C)O)O[C@H](C)C[C@@H]1N(C)C.CCCCCCCCCCCCOS(=O)(=O)O [ERYTHROMYCIN ESTOLATE],HH: Evidence of human hepatotoxicity
6,CC[C@H]1OC(=O)[C@H](C)[C@@H](O[C@H]2C[C@@](C)(OC)[C@@H](O)[C@H](C)O2)[C@H](C)[C@@H](O[C@@H]2O[C@H](C)C[C@H](N(C)C)[C@H]2O)[C@](C)(O)C[C@@H](C)C(=O)[C@H](C)[C@@H](O)[C@]1(C)O [ERYTHROMYCIN],WE: Weak evidence (<10 case reports) of human hepatotoxicity
7,C[C@]12CC[C@@H]3c4ccc(O)cc4CC[C@H]3[C@@H]1CC[C@@H]2O[C@@H]1O[C@H](C(=O)O)[C@@H](O)[C@H](O)[C@H]1O [ESTRADIOL 17B GLUCURONIDE],HH: Evidence of human hepatotoxicity
8,C[C@]12CC[C@@H]3c4ccc(O)cc4CC[C@H]3[C@@H]1CC[C@@H]2O [ESTRADIOL],WE: Weak evidence (<10 case reports) of human hepatotoxicity
9,C[C@]12CC[C@@H]3c4ccc(O)cc4CC[C@H]3[C@@H]1CCC2=O [ESTRONE],HH: Evidence of human hepatotoxicity
10,CS(=O)(=O)OCCOS(C)(=O)=O [ETHANE DIMETHANE SULFONATE],AH: Evidence for animal hepatotoxicity but not tested in humans
11,C#C[C@]1(O)CC[C@H]2[C@@H]3CCc4cc(O)ccc4[C@H]3CC[C@@]21C [ETHINYL ESTRADIOL],HH: Evidence of human hepatotoxicity
12,CCC1(C)CC(=O)NC1=O (configuration not stated) [ETHOSUXIMIDE],HH: Evidence of human hepatotoxicity
13,OCCO [ETHYLENE GLYCOL],AH: Evidence for animal hepatotoxicity but not tested in humans
14,C#C[C@]1(OC(C)=O)CC[C@H]2[C@@H]3CCC4=C[C@@H](OC(C)=O)CC[C@@H]4[C@H]3CC[C@@]21C [ETHYNODIOL DIACETATE],HH: Evidence of human hepatotoxicity
15,COc1cc([C@@H]2c3cc4c(cc3[C@@H](O[C@@H]3O[C@@H]5CO[C@@H](C)O[C@H]5[C@H](O)[C@H]3O)[C@H]3COC(=O)[C@H]23)OCO4)cc(OC)c1O [ETOPOSIDE],HH: Evidence of human hepatotoxicity
16,NC(N)=Nc1nc(CSCCC(N)=NS(N)(=O)=O)cs1 [FAMOTIDINE],WE: Weak evidence (<10 case reports) of human hepatotoxicity
17,NC(=O)OCC(COC(N)=O)c1ccccc1 [FELBAMATE],HH: Evidence of human hepatotoxicity
18,CC(C)OC(=O)C(C)(C)Oc1ccc(C(=O)c2ccc(Cl)cc2)cc1 [FENOFIBRATE],HH: Evidence of human hepatotoxicity
19,CC(C(=O)[O-])c1cccc(Oc2ccccc2)c1.[Na+] (configuration not stated) [FENOPROFEN SODIUM],HH: Evidence of human hepatotoxicity

row,Structure (SMILES),Hepatotoxicity
1,CC(C)(C(=O)O)c1ccc(C(O)CCCN2CCC(C(O)(c3ccccc3)c3ccccc3)CC2)cc1 (configuration not stated) [FEXOFENADINE],NE: No evidence of hepatotoxicity in any species
2,O=c1[nH]c(=O)n([C@@H]2O[C@H](CO)[C@@H](O)[C@@H]2F)cc1I [FIALURIDINE],HH: Evidence of human hepatotoxicity
3,O=C(COc1ccc(Cl)cc1)N1CCN(Cc2ccc3c(c2)OCO3)CC1 [FIPEXIDE],HH: Evidence of human hepatotoxicity
4,CC(=O)O.O=C(NCC1CCCCN1)c1cc(OCC(F)(F)F)ccc1OCC(F)(F)F (configuration not stated) [FLECAINIDE ACETATE],HH: Evidence of human hepatotoxicity
5,O=c1[nH]c(=O)n([C@H]2C[C@H](O)[C@@H](CO)O2)cc1F [FLOXURIDINE],HH: Evidence of human hepatotoxicity
6,OC(Cn1cncn1)(Cn1cncn1)c1ccc(F)cc1F [FLUCONAZOLE],HH: Evidence of human hepatotoxicity
7,Nc1nc(=O)[nH]cc1F [FLUCYTOSINE],HH: Evidence of human hepatotoxicity
8,CC(=O)OCC(=O)[C@@]1(O)CC[C@H]2[C@@H]3CCC4=CC(=O)CC[C@]4(C)[C@@]3(F)[C@@H](O)C[C@@]21C [FLUDROCORTISONE ACETATE],NE: No evidence of hepatotoxicity in any species
9,O=C(O)c1ccccc1Nc1cccc(C(F)(F)F)c1 [FLUFENAMIC ACID],WE: Weak evidence (<10 case reports) of human hepatotoxicity
10,CCOC(=O)c1ncn2c1CN(C)C(=O)c1cc(F)ccc1-2 [FLUMAZENIL],NE: No evidence of hepatotoxicity in any species
11,C[C@H](C(=O)O)c1ccc2oc(-c3ccc(F)cc3)nc2c1 [FLUNOXAPROFEN],WE: Weak evidence (<10 case reports) of human hepatotoxicity
12,O=c1[nH]cc(F)c(=O)[nH]1 [FLUOROURACIL],HH: Evidence of human hepatotoxicity
13,CC(C(=O)O)c1ccc(-c2ccccc2)c(F)c1 (configuration not stated) [FLURBIPROFEN],HH: Evidence of human hepatotoxicity
14,CC(C)C(=O)Nc1ccc([N+](=O)[O-])c(C(F)(F)F)c1 [FLUTAMIDE],HH: Evidence of human hepatotoxicity
15,COCCCC/C(=N\OCCN)c1ccc(C(F)(F)F)cc1 [FLUVOXAMINE],HH: Evidence of human hepatotoxicity
16,Nc1nc2ncc(CNc3ccc(C(=O)N[C@@H](CCC(=O)O)C(=O)O)cc3)nc2c(=O)[nH]1 [FOLIC ACID],NE: No evidence of hepatotoxicity in any species
17,O=C(O)P(=O)(O)O [FOSCARNET],NE: No evidence of hepatotoxicity in any species
18,O=C1OCCN1/N=C/c1ccc([N+](=O)[O-])o1 [FURAZOLIDONE],HH: Evidence of human hepatotoxicity
19,NCC1(CC(=O)O)CCCCC1 [GABAPENTIN],NE: No evidence of hepatotoxicity in any species
